The source of these data is publication PMC2782520 (Biochemistry, 2009).

The subject of one series is ER β. Conditions: ERβ versus ERα; cited from earlier work.
The target of series [1] is ERβ LBD (amino acids 257–502) (Homo sapiens, UniProt Q92731). In words: Differential HDX mass spectrometry of ERβLBD with and without ligand. The format is binding. Conditions: for Average difference in deuterium levels, LOOP 271-294 / Average difference in deuterium levels, LOOP 271-295 / Average difference in deuterium levels, LOOP 273-294 / Average difference in deuterium levels, LOOP 273-295 / Average difference in deuterium levels, LOOP 274-295 / Average difference in deuterium levels, LOOP 282-294 / Average difference in deuterium levels, LOOP 282-295: ERβLBD:ligand 1:10, average of 1, 30, 60, 900, 4200 sec, negative = protection.

The target of series [2] is T1, ERβ (Homo sapiens, UniProt Q92731). In words: Cell based functional assay, ERE-luciferase in HEK 293 cells, agonist mode. The following applies: for ERβ Agonist % stim: % stimulation versus DES maximum response; for EC50: read-out: ERβ Agonist EC50, ERE-luciferase, 24 h.
The next series has as its target T2, ERα (Homo sapiens, UniProt P03372).
T2 sequence (P03372 1-595): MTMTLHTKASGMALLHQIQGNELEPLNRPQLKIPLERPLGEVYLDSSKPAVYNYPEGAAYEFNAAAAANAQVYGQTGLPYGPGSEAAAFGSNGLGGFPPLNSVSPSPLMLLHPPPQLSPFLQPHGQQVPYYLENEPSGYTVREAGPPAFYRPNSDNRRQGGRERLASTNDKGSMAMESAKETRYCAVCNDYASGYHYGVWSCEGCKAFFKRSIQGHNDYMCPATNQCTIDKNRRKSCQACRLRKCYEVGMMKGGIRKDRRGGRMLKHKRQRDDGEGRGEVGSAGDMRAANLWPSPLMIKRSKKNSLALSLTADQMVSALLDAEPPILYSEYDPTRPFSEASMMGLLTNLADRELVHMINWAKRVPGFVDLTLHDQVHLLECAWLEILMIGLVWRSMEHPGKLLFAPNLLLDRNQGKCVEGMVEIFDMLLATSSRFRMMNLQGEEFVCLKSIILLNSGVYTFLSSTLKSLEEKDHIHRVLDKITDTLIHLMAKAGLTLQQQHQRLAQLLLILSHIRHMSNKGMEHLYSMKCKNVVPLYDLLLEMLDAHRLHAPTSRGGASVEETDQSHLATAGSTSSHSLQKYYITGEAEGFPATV
The series can be described thus: ER competition binding assay.

For series [3], the target named is T1, ERβ. The series can be described thus: ER competition binding assay.
The target of series [4] is T1, ERβ. The series can be described thus: Cell based functional assay, ERE-luciferase in HEK 293 cells, antagonist mode. Conditions: for ERβ Antag % inhib.: HEK 293 cells, ERE-luciferase.

By EC50 is commonly meant the concentration at which the effect is half-maximal. A word on the Ki: it is the dissociation constant of the complex between target and ligand, obtained from inhibition or displacement. A lower Ki goes with higher affinity. A word on the IC50: it is the concentration at which inhibition is half-maximal. High values mean weaker potency, low ones greater potency.

T1 sequence (Q92731 whole entry): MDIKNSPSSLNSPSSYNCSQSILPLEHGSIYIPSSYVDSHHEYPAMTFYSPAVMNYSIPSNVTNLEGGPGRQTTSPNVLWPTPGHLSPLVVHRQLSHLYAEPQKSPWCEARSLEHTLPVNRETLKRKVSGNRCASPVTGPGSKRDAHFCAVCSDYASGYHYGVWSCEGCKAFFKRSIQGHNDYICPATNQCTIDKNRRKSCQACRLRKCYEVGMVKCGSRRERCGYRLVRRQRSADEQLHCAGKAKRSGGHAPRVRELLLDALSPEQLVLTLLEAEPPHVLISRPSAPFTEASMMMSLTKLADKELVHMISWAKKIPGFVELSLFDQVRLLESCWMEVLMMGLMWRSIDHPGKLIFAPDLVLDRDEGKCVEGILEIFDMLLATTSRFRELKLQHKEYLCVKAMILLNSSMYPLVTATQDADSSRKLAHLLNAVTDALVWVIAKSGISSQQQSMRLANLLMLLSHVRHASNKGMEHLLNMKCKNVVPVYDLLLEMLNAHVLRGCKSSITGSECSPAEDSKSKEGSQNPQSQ
Sequence of ERβ LBD (amino acids 257–502) (Q92731 257-502): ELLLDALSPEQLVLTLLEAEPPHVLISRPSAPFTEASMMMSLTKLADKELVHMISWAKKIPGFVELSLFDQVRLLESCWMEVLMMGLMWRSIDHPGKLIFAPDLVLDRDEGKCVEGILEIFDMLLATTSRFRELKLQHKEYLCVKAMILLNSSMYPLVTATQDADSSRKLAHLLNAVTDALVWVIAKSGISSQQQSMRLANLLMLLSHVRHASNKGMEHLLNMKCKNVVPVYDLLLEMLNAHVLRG

With `O=c1c(-c2ccc(O)cc2)coc2cc(O)cc(O)c12` [Genistein, genistein], in the series on ER β, the “Binding to ER β tighter than to ERα” value is reported as “approximately 10 fold”.
Take `CC/C(=C(\c1ccc(O)cc1)c1ccc(OCCN(C)C)cc1)c1ccccc1` [4-hydroxy tamoxifen, 4-hydroxytamoxifen]: in series [1], the “Average difference in deuterium levels, LOOP 271-294” value (“Average difference … LOOP 271-294” for short) is listed as −8%; the “Average difference in deuterium levels, LOOP 271-295” value (“Average difference … LOOP 271-295” below) was −11%; the “Average difference in deuterium levels, LOOP 273-294” value (shortened to “Average difference … LOOP 273-294”) is listed as −12%; the “Average difference in deuterium levels, LOOP 273-295” value (“Average difference … LOOP 273-295” for short) was −11%. Also, in series [1], the “Average difference in deuterium levels, LOOP 274-295” value (“Average difference … LOOP 274-295” below) is listed as −12%; the “Average difference in deuterium levels, LOOP 282-294” value (shortened to “Average difference … LOOP 282-294”) is on record as −10%; the “Average difference in deuterium levels, LOOP 282-295” value (“Average difference … LOOP 282-295” for short) is given as −11%. Also, the “Protection to exchange, β-sheet1/β-sheet2 region” value in series [1] (amino acid 355–362 of ERβLBD, p<0.001, positive = protection) is ~ 20%. Moreover, in series [1] (helix 3, amino acids 296–309 in ERβ, positive = protection), the “Protection (stabilization) of helix 3 to H/D exchange, ERβ” value was 13%.
Take `O=C(c1ccc(O)cc1)c1c(-c2ccc(O)cc2)sc2cc(O)ccc12` [compound 88074]: in series [1], the “Average difference … LOOP 271-294” value was −7%; the “Average difference … LOOP 271-295” value is listed as −8%; the “Average difference … LOOP 273-294” value is −9%; the “Average difference … LOOP 273-295” value is −7%. For the same compound, in series [1], the “Average difference … LOOP 274-295” value was −8%; the “Average difference … LOOP 282-294” value is −7%; the “Average difference … LOOP 282-295” value is listed as −7%. Besides, at ERβ [2], the “ERβ Agonist % stim” value is recorded as 104% and the 50% effective concentration (EC50) stood at 232 nM.
For the compound `O=C(c1ccc(OCCN2CCCCC2)cc1)c1c(-c2ccc(O)cc2)sc2cc(O)ccc12` [Raloxifene, raloxifene], in series [1], the “Average difference … LOOP 271-294” value is −7%; the “Average difference … LOOP 271-295” value is listed as −7%; the “Average difference … LOOP 273-294” value is listed as −9%; the “Average difference … LOOP 273-295” value was −7%. Also, in series [1], the “Average difference … LOOP 282-294” value is −6% and the “Average difference … LOOP 282-295” value is −7%.
As to `O=C(c1ccc(OCCN2CCCC2)cc1)c1c(-c2ccc(O)cc2)sc2cc(O)ccc12` [compound 117018], in series [1], the “Average difference … LOOP 271-294” value is −7%; the “Average difference … LOOP 271-295” value is recorded as −7%; the “Average difference … LOOP 273-294” value is on record as −8%; the “Average difference … LOOP 273-295” value is −7%. Moreover, in series [1], the “Average difference … LOOP 274-295” value was −8%; the “Average difference … LOOP 282-294” value is −7%; the “Average difference … LOOP 282-295” value was −8%. The concentration giving a half-maximal response (EC50) on ERβ [2] was > 10000 nM. For the same compound, the Ki on ERα was determined as 0.32 nM. The compound further showed an inhibition constant Ki at ERβ [3] of 1.3 nM. Besides, at ERβ [4], the half-maximal inhibitory concentration (IC50) worked out at 204 nM and the “ERβ Antag % inhib.” value was 108%.
On to `Oc1ccc2c(c1)CC[C@H](c1ccccc1)[C@@H]2c1ccc(OCCN2CCCC2)cc1` [Lasodoxifene, lasofoxifene], for which, in series [1], the “Average difference … LOOP 271-294” value is reported as −11%; the “Average difference … LOOP 271-295” value was −11%; the “Average difference … LOOP 273-294” value was −12%; the “Average difference … LOOP 273-295” value is listed as −9%. Moreover, in series [1], the “Average difference … LOOP 274-295” value is recorded as −12%; the “Average difference … LOOP 282-294” value is on record as −9%; the “Average difference … LOOP 282-295” value was −9%. For the same compound, the “ERβ Antag % inhib.” value at ERβ [4] was 103%.
For the compound `C[C@]12CC[C@@H]3c4ccc(O)cc4C[C@@H](CCCCCCCCC[S+]([O-])CCCC(F)(F)C(F)(F)F)[C@H]3[C@@H]1CC[C@@H]2O` (stereo partly drawn) [ICI, ICI 182780], in series [1], the “Average difference … LOOP 271-294” value was −9%; the “Average difference … LOOP 271-295” value was −10%; the “Average difference … LOOP 273-294” value is −11%; the “Average difference … LOOP 273-295” value is given as −10%. Further, in series [1], the “Average difference … LOOP 274-295” value is recorded as −11%; the “Average difference … LOOP 282-294” value was −9%; the “Average difference … LOOP 282-295” value is given as −10%. Also, the “ERβ Antag % inhib.” value on ERβ [4] amounted to 109%.
As for `C[C@]12CC[C@@H]3c4ccc(O)cc4CC[C@H]3[C@@H]1CC[C@@H]2O` [Estradiol, 17β-estradiol], in series [1], the “Average difference … LOOP 271-294” value is −6%; the “Average difference … LOOP 271-295” value was −7%; the “Average difference … LOOP 273-294” value is listed as −9%; the “Average difference … LOOP 273-295” value is −6%. Further, in series [1], the “Average difference … LOOP 274-295” value is −8%; the “Average difference … LOOP 282-294” value is given as −7%; the “Average difference … LOOP 282-295” value is −6%. For the same compound, the “ERβ Agonist % stim” value on ERβ [2] is given as 100%.
On to `CC/C(=C(/CC)c1ccc(O)cc1)c1ccc(O)cc1` [DES, Diethylstilbestrol], for which, in series [1], the “Average difference … LOOP 271-294” value is −10%; the “Average difference … LOOP 271-295” value is listed as −10%; the “Average difference … LOOP 273-294” value was −12%; the “Average difference … LOOP 273-295” value is reported as −10%. In series [1], the “Average difference … LOOP 274-295” value is reported as −10%; the “Average difference … LOOP 282-294” value is on record as −8%; the “Average difference … LOOP 282-295” value is given as −10%. For the same compound, the “ERβ Agonist % stim” value on ERβ [2] turned out to be 97%.
